Measured values taken from patent US10815244B2, “Isoidide derivatives and methods of making and using same” (Rutgers, the State University of New Jersey, priority 2015, dated 2020).

Columns and labels:
[1] = system: TNF-α (LPS-stimulated PBMCs); test: TNF-α expression in LPS-stimulated PBMCs in the presence of MIF inhibitors (ELISA); type: cell-based; conditions: Homo sapiens, PBMC, LPS 10 ng/ml and LPS+MIF, ELISA of supernatant
Description: (§1) Example QQ: Macrophage Migration Inhibitory Factor (MIF) as a Drug Target Assay Conditions
(§2) a) PBMC Isolation: • Heparinized blood (10 ml) was diluted with equal volume of phosphate buffer saline (PBS). To the Ficoll solution (5 ml) add 5 ml of blood:PBS mixture and centrifuge at 1600 rpm for 30 minutes. Take the buffy coat and wash with PBS at 1200 rpm for 5 minutes (twice). After two wash with PBS, the PBMCs were washed with RPMI medium. The PBMC were counted and plated in 96 well plates (1×10^6 cells/well).
(§3) b) Expression of TNF-α and […] in PBMCs in the Presence of MIF Inhibitors: • After overnight incubation, the cells were treated with different concentration of MIF inhibitors. After 6 hr, cells were treated with LPS (10 ng/ml) and LPS+MIF combination (10 ng/ml) and further incubated for overnight. PBMCs treated with 10 ng/ml of LPS and MIF in the presence of different concentrations of test compounds. After the incubation period, the supernatant were collected and human TNF-α and IL-1β were determined using the ELISA kits (R&D Systems).

[2] = system: IL-1β (LPS-stimulated PBMCs); test: IL-1β expression in LPS-stimulated PBMCs in the presence of MIF inhibitors (ELISA); type: cell-based; conditions: Homo sapiens, PBMC, LPS 10 ng/ml and LPS+MIF, ELISA of supernatant
Description: as §1, §2, §3

EGFR kinase = EGFR kinase (Homo sapiens (Human), UniProt P00533); test: EGFR kinase activity, luminescent ATP/ADP detection assay; type: biochemical; conditions: purified EGFR kinase, 10 min incubation, luminescence ADP detection
Description: Example RR: EGFR as a Drug Target Assay Conditions
The IC50s of the compounds on EGFR activity were determined using the Luminescent ATP/ADP detection assay system. Briefly, the assay method measures ADP formed from EGFR kinase activity using luminescence derived from ATP-Luciferase detection system. Purified EGFR kinase was incubated with different concentrations of test compound in the kinase reaction buffer for 10 min. The reaction was stopped by depleting the unused ATP in the kinase reaction buffer using the depletion buffer for 40 min. The levels of ADP generated during the kinase reaction was detected by measuring the luminescence using the Luciferase system.

Sequence of EGFR kinase (P00533 25-1210): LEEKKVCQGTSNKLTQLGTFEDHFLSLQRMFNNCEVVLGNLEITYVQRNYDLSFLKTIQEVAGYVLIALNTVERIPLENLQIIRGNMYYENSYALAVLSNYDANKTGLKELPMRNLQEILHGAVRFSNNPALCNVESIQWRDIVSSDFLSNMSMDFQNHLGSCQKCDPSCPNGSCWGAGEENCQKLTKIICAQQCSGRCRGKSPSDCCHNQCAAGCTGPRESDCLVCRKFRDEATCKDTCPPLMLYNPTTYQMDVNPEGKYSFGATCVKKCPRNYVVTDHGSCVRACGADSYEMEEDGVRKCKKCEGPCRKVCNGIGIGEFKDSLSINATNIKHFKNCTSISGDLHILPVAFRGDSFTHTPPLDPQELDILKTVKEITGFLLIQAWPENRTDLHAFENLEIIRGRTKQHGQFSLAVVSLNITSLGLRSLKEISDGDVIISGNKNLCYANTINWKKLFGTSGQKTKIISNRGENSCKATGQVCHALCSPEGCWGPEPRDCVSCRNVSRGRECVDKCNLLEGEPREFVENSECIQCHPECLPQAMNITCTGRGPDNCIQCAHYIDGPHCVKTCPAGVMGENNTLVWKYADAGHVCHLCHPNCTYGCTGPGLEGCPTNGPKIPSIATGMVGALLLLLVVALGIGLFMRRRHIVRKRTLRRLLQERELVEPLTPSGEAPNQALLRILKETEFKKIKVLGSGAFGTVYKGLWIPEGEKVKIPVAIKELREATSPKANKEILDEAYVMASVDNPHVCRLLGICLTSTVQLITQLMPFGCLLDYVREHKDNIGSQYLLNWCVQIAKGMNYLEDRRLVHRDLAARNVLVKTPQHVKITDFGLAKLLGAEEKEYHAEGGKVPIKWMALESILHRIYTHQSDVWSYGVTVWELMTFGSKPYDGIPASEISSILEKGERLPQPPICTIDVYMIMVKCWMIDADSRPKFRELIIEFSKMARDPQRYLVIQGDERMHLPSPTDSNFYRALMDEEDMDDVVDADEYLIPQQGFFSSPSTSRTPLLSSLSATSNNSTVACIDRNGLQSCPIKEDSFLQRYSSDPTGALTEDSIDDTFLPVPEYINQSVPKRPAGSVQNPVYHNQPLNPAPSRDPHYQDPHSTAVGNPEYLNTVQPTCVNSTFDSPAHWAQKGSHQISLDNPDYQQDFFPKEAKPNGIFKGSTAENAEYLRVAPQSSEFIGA

EGFR IC50 (EGFR kinase)	IC50 (EGFR kinase) [nM]	Structure (SMILES)	IC50 [1] [nM]	IC50 [2] [nM]
–	–	CCOC(=O)c1c(O[C@H]2CO[C@H]3[C@@H]2OC[C@@H]3O)c2ccccc2n(Cc2ccccc2)c1=O [Example E, ethyl 4-[[(3S,3aR,6S,6aR)-3-hydroxy-2,3,3a,5,6,6a-hexahydrofuro[3,2-b]furan-6-yl]oxy]-1-benzyl-2-oxo-1,2-dihydroquinoline-3-carboxylate]	> 500	> 500
–	–	N#Cc1c(O[C@H]2CO[C@H]3[C@@H]2OC[C@@H]3OC(=O)CCl)c2ccccc2n(Cc2ccc(F)cc2)c1=O [Example Q, [(3S,3aR,6S,6aR)-3-[[3-cyano-1-[(4-fluorophenyl)methyl]-2-oxo-4-quinolyl]oxy]-2,3,3a,5,6,6a-hexahydrofuro[3,2-b]furan-6-yl] 2-chloroacetate]	> 100	> 100
Inactive	–	CSc1ncc(Br)c(C(=O)O[C@H]2CO[C@H]3[C@@H]2OC[C@@H]3O)n1 [Example KK, [(3S,3aR,6S,6aR)-3-hydroxy-2,3,3a,5,6,6a-hexahydrofuro[3,2-b]furan-6-yl] 5-bromo-2-methylsulfanyl-pyrimidine-4-carboxylate]	–	–
–	–	CCOC(=O)c1c(O[C@H]2CO[C@H]3[C@@H]2OC[C@@H]3O)c2ccccc2n(Cc2ccc(F)cc2)c1=O [Example I, ethyl 4-[[(3S,3aR,6S,6aR)-3-hydroxy-2,3,3a,5,6,6a-hexahydrofuro[3,2-b]furan-6-yl]oxy]-1-[(4-fluorophenyl)methyl]-2-oxo-1,2-dihydroquinoline-3-carboxylate]	> 500	> 500
–	–	N#Cc1c(O[C@H]2CO[C@H]3[C@@H]2OC[C@@H]3O)c2ccccc2n(Cc2ccc(F)cc2)c1=O [Example N, 4-[[(3S,3aR,6S,6aR)-3-hydroxy-2,3,3a,5,6,6a-hexahydrofuro[3,2-b]furan-6-yl]oxy]-1-[(4-fluorophenyl)methyl]-2-oxo-1,2-dihydroquinoline-3-carbonitrile]	> 100	> 10000
–	> 100	COc1cc2ncnc(Nc3ccc(O[C@H]4CO[C@H]5[C@@H]4OC[C@@H]5OCc4ccccc4)cc3)c2cc1OC [Example Z, N-[4-[[(3S,3aR,6S,6aR)-3-benzyloxy-2,3,3a,5,6,6a-hexahydrofuro[3,2-b]furan-6-yl]oxy]phenyl]-6,7-dimethoxy-quinazolin-4-amine]	–	–
Inactive	–	CC(=O)O[C@H]1CO[C@H]2[C@@H]1OC[C@@H]2Oc1ccnc(NC2CCN(C(=O)C(C)(C)C)CC2)n1 [Example HH, [(3S,3aR,6S,6aR)-3-[2-[[1-(2,2-dimethylpropanoyl)-4-piperidyl]amino]pyrimidin-4-yl]oxy-2,3,3a,5,6,6a-hexahydrofuro[3,2-b]furan-6-yl] acetate]	–	–
Inactive	–	CSc1nccc(Nc2ccc(O[C@H]3CO[C@H]4[C@@H]3OC[C@@H]4O)c(Cl)c2)n1 [Example V, (3S,3aR,6S,6aR)-6-[2-chloro-4-[(2-methylsulfanylpyrimidin-4-yl)amino]phenoxy]-2,3,3a,5,6,6a-hexahydrofuro[3,2-b]furan-3-ol]	–	–
–	–	CCOC(=O)c1c(Nc2ccc(O[C@H]3CO[C@H]4[C@@H]3OC[C@@H]4O)c(Cl)c2)c2ccccc2n(Cc2ccccc2)c1=O [Example S, ethyl 4-[4-[[(3S,3aR,6S,6aR)-3-hydroxy-2,3,3a,5,6,6a-hexahydrofuro[3,2-b]furan-6-yl]oxy]-3-chloro-anilino]-1-benzyl-2-oxo-1,2-dihydroquinoline-3-carboxylate]	> 500	> 500
–	–	CCOC(=O)c1c(O[C@H]2CO[C@H]3[C@@H]2OC[C@@H]3OC(C)=O)c2ccccc2n(Cc2ccccc2)c1=O [Example F, ethyl 4-[[(3S,3aR,6S,6aR)-6-acetoxy-2,3,3a,5,6,6a-hexahydrofuro[3,2-b]furan-3-yl]oxy]-1-benzyl-2-oxo-1,2-dihydroquinoline-3-carboxylate]	> 10000	> 10000
–	–	CCOC(=O)c1c(O[C@H]2CO[C@H]3[C@@H]2OC[C@@H]3O)c2ccccc2n(CC)c1=O [Example A, ethyl 4-[[(3S,3aR,6S,6aR)-3-hydroxy-2,3,3a,5,6,6a-hexahydrofuro[3,2-b]furan-6-yl]oxy]-1-ethyl-2-oxo-1,2-dihydroquinoline-3-carboxylate]	> 1000	> 1000
–	–	CC(=O)O[C@H]1CO[C@H]2[C@@H]1OC[C@@H]2Oc1c(C#N)c(=O)n(Cc2ccccc2)c2ccccc12 [Example L, [(3S,3aR,6S,6aR)-3-[(1-benzyl-3-cyano-2-oxo-4-quinolyl)oxy]-2,3,3a,5,6,6a-hexahydrofuro[3,2-b]furan-6-yl] acetate]	> 1000	> 1000
–	–	CCOC(=O)c1c(O[C@H]2CO[C@@H]3C=CO[C@H]23)c2ccccc2n(CC)c1=O [Example D, ethyl 4-[[(3S,3aS,6aR)-2,3,3a,6a-tetrahydrofuro[3,2-b]furan-3-yl]oxy]-1-ethyl-2-oxo-1,2-dihydroquinoline-3-carboxylate]	> 10000	> 10000
–	–	CC(=O)O[C@H]1CO[C@H]2[C@@H]1OC[C@@H]2Oc1c(C#N)c(=O)n(Cc2ccc(F)cc2)c2ccccc12 [Example O, [(3S,3aR,6S,6aR)-3-[[3-cyano-1-[(4-fluorophenyl)methyl]-2-oxo-4-quinolyl]oxy]-2,3,3a,5,6,6a-hexahydrofuro[3,2-b]furan-6-yl] acetate]	> 100	> 10000
–	–	N#Cc1c(O[C@H]2CO[C@H]3[C@@H]2OC[C@@H]3O)c2ccccc2n(Cc2ccccc2)c1=O [Example K, 4-[[(3S,3aR,6S,6aR)-3-hydroxy-2,3,3a,5,6,6a-hexahydrofuro[3,2-b]furan-6-yl]oxy]-1-benzyl-2-oxo-1,2-dihydroquinoline-3-carbonitrile]	> 100	> 100
–	–	CCOC(=O)c1c(O[C@H]2CO[C@H]3[C@@H]2OC[C@@H]3OC(=O)CCl)c2ccccc2n(Cc2ccccc2)c1=O [Example G, ethyl 4-[[(3S,3aR,6S,6aR)-6-(2-chloroacetyl)oxy-2,3,3a,5,6,6a-hexahydrofuro[3,2-b]furan-3-yl]oxy]-1-benzyl-2-oxo-1,2-dihydroquinoline-3-carboxylate]	> 100	> 100
–	–	CCOC(=O)c1c(O[C@H]2CO[C@@H]3C=CO[C@H]23)c2ccccc2n(Cc2ccccc2)c1=O [Example H, ethyl 4-[[(3S,3aS,6aR)-2,3,3a,6a-tetrahydrofuro[3,2-b]furan-3-yl]oxy]-1-benzyl-2-oxo-1,2-dihydroquinoline-3-carboxylate]	> 10000	> 10000
–	–	N#Cc1c(O[C@H]2CO[C@H]3[C@@H]2OC[C@@H]3OC(=O)CCl)c2ccccc2n(Cc2ccccc2)c1=O [Example M, [(3S,3aR,6S,6aR)-3-[(1-benzyl-3-cyano-2-oxo-4-quinolyl)oxy]-2,3,3a,5,6,6a-hexahydrofuro[3,2-b]furan-6-yl] 2-chloroacetate]	> 500	> 500
–	–	CCOC(=O)c1c(O[C@H]2CO[C@H]3[C@@H]2OC[C@@H]3OC(C)=O)c2ccccc2n(CC)c1=O [Example B, ethyl 4-[[(3S,3aR,6S,6aR)-6-acetoxy-2,3,3a,5,6,6a-hexahydrofuro[3,2-b]furan-3-yl]oxy]-1-ethyl-2-oxo-1,2-dihydroquinoline-3-carboxylate]	> 10000	> 10000
–	–	N#Cc1c(O[C@H]2CO[C@H]3[C@@H]2OC[C@@H]3OC(=O)c2ccccc2)c2ccccc2n(Cc2ccc(F)cc2)c1=O [Example P, [(3S,3aR,6S,6aR)-3-[[3-cyano-1-[(4-fluorophenyl)methyl]-2-oxo-4-quinolyl]oxy]-2,3,3a,5,6,6a-hexahydrofuro[3,2-b]furan-6-yl] benzoate]	> 10000	> 10000
–	–	N#Cc1c(Nc2ccc(O[C@H]3CO[C@H]4[C@@H]3OC[C@@H]4O)c(Cl)c2)c2ccccc2n(Cc2ccccc2)c1=O [Example R, 4-[4-[[(3S,3aR,6S,6aR)-3-hydroxy-2,3,3a,5,6,6a-hexahydrofuro[3,2-b]furan-6-yl]oxy]-3-chloro-anilino]-1-benzyl-2-oxo-1,2-dihydroquinoline-3-carbonitrile]	> 100	> 100
–	–	CCOC(=O)c1c(O[C@H]2CO[C@H]3[C@@H]2OC[C@@H]3OC(=O)CCl)c2ccccc2n(CC)c1=O [Example C, ethyl 4-[[(3S,3aR,6S,6aR)-6-(2-chloroacetyl)oxy-2,3,3a,5,6,6a-hexahydrofuro[3,2-b]furan-3-yl]oxy]-1-ethyl-2-oxo-1,2-dihydroquinoline-3-carboxylate]	> 500	> 500
–	–	CCOC(=O)c1c(O[C@H]2CO[C@H]3[C@@H]2OC[C@@H]3OC(=O)CCl)c2ccccc2n(Cc2ccc(F)cc2)c1=O [Example J, ethyl 4-[[(3S,3aR,6S,6aR)-6-(2-chloroacetyl)oxy-2,3,3a,5,6,6a-hexahydrofuro[3,2-b]furan-3-yl]oxy]-1-[(4-fluorophenyl)methyl]-2-oxo-1,2-dihydroquinoline-3-carboxylate]	> 100	> 100
